Test results reported in the NIST ThermoML archive (doi:10.1021/acs.jced.7b00494).

Experiment: mn = molality of the nth substance listed, in mol/kg
Details: 99.6 kPa, Liquid; for mass density: Vibrating tube method; for kinematic viscosity: Capillary tube (Ostwald / Ubbelohde) method

CNC(C)=O [N-methylacetamide] + [Ca+2].[Cl-].[Cl-]
Details	kinematic viscosity, 323.15 K [m2/s]	kinematic viscosity, 328.15 K [m2/s]	mass density, 318.15 K [kg/m3]	mass density, 323.15 K [kg/m3]	mass density, 328.15 K [kg/m3]
m2 = 0	2.68e-06	2.42e-06	937.44	933.24	929.07
m2 = 0.00398	2.69e-06	2.44e-06	937.73	933.54	929.34
m2 = 0.01042	2.72e-06	2.46e-06	938.2	933.97	929.79
m2 = 0.04232	2.86e-06	2.58e-06	940.39	936.24	932.07
m2 = 0.05605	2.92e-06	2.63e-06	941.34	937.18	933.03
m2 = 0.08536	3.05e-06	2.74e-06	943.45	939.13	934.99
m2 = 0.1022	3.13e-06	2.81e-06	944.7	940.52	936.21
m2 = 0.1314	3.28e-06	2.95e-06	946.62	942.51	938.24
m2 = 0.1539	3.39e-06	3.05e-06	948.18	943.99	939.85
m2 = 0.1613	3.43e-06	3.09e-06	948.73	944.54	940.37
m2 = 0.1719	3.48e-06	3.13e-06	949.44	945.4	941.17
m2 = 0.1998	3.64e-06	3.27e-06	951.58	947.31	943.19
m2 = 0.2219	3.77e-06	3.39e-06	953.04	948.77	944.71
m2 = 0.2578	4e-06	3.58e-06	955.68	951.4	947.13
m2 = 0.3546	4.71e-06	4.2e-06	962.4	958.22	953.99
